Results taken from US10933053B2, “Treating infections with ceftolozane/tazobactam in subjects having impaired renal function” (MERCK SHARP & DOHME CORP., priority 2013, dated 2021).

Assay: Phase I studies: impact of renal function on PK and safety of ceftolozane/tazobactam
Format: in vivo, human
Conditions: for median AUC0-∞ increase vs normal renal function / median Cmax increase vs normal renal function: moderate renal impairment; for median AUC0-∞ increase vs dose-normalized exposure in normal renal function / median Cmax increase vs dose-normalized exposure in normal renal function: severe renal impairment
Source text: Male and female subjects, aged 18 to 79 years, with varying degrees of renal function were enrolled in two, prospective, open-label, phase I studies of intravenous ceftolozane/tazobactam. A total of 36 subjects were enrolled into cohorts based on degree of renal function: normal (n=11), mild impairment (n=6), moderate impairment (n=7), severe impairment (n=6), and ESRD on HD (n=6). To ensure subjects with ESRD were receiving effective HD, a target adequacy of HD calculated from the pre- and post-blood urea nitrogen ratios (Kt/V) of at least 1.2 for a minimum of 3 months prior to enrollment was required.
All cohorts received ceftolozane/tazobactam as an intravenous infusion over 1 h. The normal, mild, and moderate renal impairment cohorts received a single dose of ceftolozane/tazobactam 1,000 mg/500 mg; the severe renal impairment cohort received a single dose of ceftolozane/tazobactam 500 mg/250 mg; the ESRD cohort received a dose of ceftolozane/tazobactam 500 mg/250 mg initiated at the end of HD on day 1 and another dose initiated 2 h before HD on day 4. Subjects with ESRD underwent HD for 3 to 4 h using a high-flux membrane as scheduled; average dialysis flow rate was 600 to 800 ml/min. Revaclear hemodialyzers (Gambro, Stockholm, Sweden) were used in 5 subjects (ultrafiltration coefficient 50 to 60 ml/h/mmHg, high flux membrane of 1.4 to 1.8 m^2) and a CT 190G hemodialyzers (Baxter Healthcare, McGaw Park, Ill.) was used in 1 subject (ultrafiltration coefficient 36 ml/h/mmHg, high flux membrane of 1.9 m^2). The average blood flow rate was 400 to 600 ml/min with the exception of one subject with rates between 264 and 400 ml/min.
Plasma concentrations of ceftolozane and tazobactam were measured prior to, during, and following administration of ceftolozane/tazobactam. Blood samples were collected 30 min prior to administration, at the end of administration and at 5, 15, and 30 min and 1, 2, 3, 5, 7, 9, 11, 15, 25, and 35 h after completion of ceftolozane/tazobactam administration in the normal, mild, and moderate renal impairment cohorts. Severe renal impairment and ESRD cohorts off HD had samples taken 30 min prior to administration and at 0.5, 1, 1.5, 2, 3, 6, 9, 12, 24, 36, and 48 h after the start of administration. On the day of and following HD, the subjects with ESRD had samples taken 30 min prior to administration and at 0.5, 1, 1.5, 2, 3, 4, 5, 6, 9, 12, 24, 36, and 44 h after the start of the administration. The entire dialysate was collected at each of the following intervals: 0 to 1, 1 to 2, 2 to 3, and 3 h to the end of dialysis. Urine for PK analysis was obtained in the normal, mild, and moderate cohorts at 0 to 2, 2 to 4, 4 to 8, 8 to 12, 12 to 24, and 24 to 36 h after the start of ceftolozane/tazobactam administration. In the ESRD and severe renal impairment cohorts, urine was collected during the confinement period pre-dose, 0 to 24 h, and 24 to 48 h after the start of the administration, unless the subject was anuric. A validated LC/MS/MS method was utilized to analyze all plasma, urine, and dialysate samples for ceftolozane and tazobactam (MicroConstants Inc., San Diego, Calif.) (4). The lower limit of quantification (LLOQ) in plasma was 0.25 μg/ml for ceftolozane and 0.1 μg/ml for tazobactam. The assay was linear between 0.25 and 150 μg/ml for ceftolozane and between 0.1 and 50 μg/ml for tazobactam. […] The LLOQ in dialysate for both ceftolozane and tazobactam was 1 ng/ml and the assay was linear between 1 and 500 ng/ml. […] The LLOQ for ceftolozane and tazobactam in urine was 5 and 10 μg/ml, respectively, and the assay was linear between 5 and 5,000 μg/ml for ceftolozane and between 10 and 10,000 μg/ml for tazobactam.

Row | SMILES | median AUC0-∞ increase vs normal renal function [fold] | median Cmax increase vs normal renal function [fold] | median AUC0-∞ increase vs dose-normalized exposure in normal renal function [fold] | median Cmax increase vs dose-normalized exposure in normal renal function [fold]
1 | Cn1c(N)c(NC(=O)NCCN)c[n+]1CC1=C(C(=O)O)N2C(=O)[C@@H](NC(=O)/C(=N\OC(C)(C)C(=O)O)c3nsc(N)n3)[C@H]2SC1 [Ceftolozane, (6R,7R)-3-[(5-amino-4-{[(2-aminoethyl)carbamoyl]amino}-1-methyl-1H-pyrazol-2-ium-2-yl)methyl]-7-({(2Z)-2-(5-amino-1,2,4-thiadiazol-3-yl)-2-[(1-carboxy-1-methylethoxy)imino]acetyl}amino)-8-oxo-5-thia-1-azabicyclo[4.2.0]oct-2-ene-2-carboxylate] | 2.5 | 1.2 | 4.4 | 1.3
2 | C[C@]1(Cn2ccnn2)[C@H](C(=O)O)N2C(=O)C[C@H]2S1(=O)=O [Tazobactam, tazobactam] | 2.2 | 1.6 | 3.8 | 1.9
